The source of these data is article PMC3616073, “Engineering Agatoxin, a Cystine-Knot Peptide from Spider Venom, as a Molecular Probe for In Vivo Tumor Imaging” (PLoS ONE, 2013).

The term IC50 denotes the midpoint of a concentration-inhibition curve.

Details of data set [1]: method as in PMID 20124048, PMID 19276378. To be noted: cited from earlier work; for Stability in serum and blood: radiolabeled probes of earlier studies.
Data set [2] concerns the target T1, αvβ3 integrin on K562-αvβ3 cells (Homo sapiens, UniProt P05106+P06756).
T1 construct: expressed in transfected cells; host or cells: K562 leukemia cells (courtesy of S. Blystone)
Put plainly: Competition binding assay on K562-αvβ3 cells (FLAG-AgRP 7A competitor, flow cytometry). To be noted: competition with 0.5 nM FLAG-AgRP 7A, 5×10^4 K562-αvβ3 cells in IBB, 4 hr at 4 °C, anti-FLAG flow cytometry, mean of three experiments ± SD, read-out: IC50 (relative binding affinity to K562-αvβ3 cells). From the text: Competition binding assays were used to measure the relative affinities of the AgTx 7C variants and AgRP 7C to K562 leukemia cells transfected to express high levels of αvβ3 integrin [50]. […] FLAG-AgRP 7A contains an N-terminal FLAG epitope tag (DYKDDDDK), which allows detection of cell surface binding by flow cytometry using a fluorescently labeled anti-FLAG antibody.
Figure 3 Engineered AgTx 7C variants bind to K562-αvβ3 cells with similar IC50 values. Varying concentrations of AgRP 7C and AgTx 7C variants were incubated with FLAG-AgRP 7A and allowed to compete for binding to integrin receptors expressed on the surface of K562-αvβ3 cells. Representative competition binding curves are shown, and are plotted as knottin concentration versus the fraction of FLAG-AgRP 7A bound. IC50 values reported as mean of three experiments ± SD. TEXT PRINTED IN THE PICTURE: AgRP 7C: IC50 (nM): 2.2 ± 1.0 | AgTx 7C ΔR21: IC50 (nM): 2.3 ± 0.5 | AgTx 7C P22G R24I: IC50 (nM): 8.1 ± 1.6 | AgTx 7C ΔR21 P22G R24I: IC50 (nM): 5.1 ± 1.6 | AgTx 7C ΔR9: IC50 (nM): 2.5 ± 0.4
Competition binding assays were performed on K562 leukemia cells transfected to express high levels of αvβ3 integrins. Varying concentrations of AgRP 7C and AgTx variants were incubated with 5×10^4 K562-αvβ3 cells in IBB for 4 hr at 4 °C, along with a constant concentration (0.5 nM) of recombinantly expressed FLAG-AgRP 7A knottin as a competitor. FLAG-AgRP 7A binds with high affinity to αvβ3 integrin and contains an N-terminal epitope tag (DYKDDDDK), allowing cell surface binding to be detecting using an anti-FLAG antibody. Care was taken to allow adequate time for equilibrium binding and to avoid ligand depleting conditions. […] Cells were washed with BPBS and analyzed by flow cytometry on a FACSCalibur instrument (BD Biosciences), and data was quantified using FlowJo software (TreeStar). IC50 values were determined by nonlinear regression analysis using KaleidaGraph (Synergy Software). […]
Background: Flow cytometry measures light scatter and fluorescence of single cells or particles in a stream.

The target of data set [3] is T2, αvβ3 integrins expressed on U87MG glioblastoma cells (Homo sapiens, UniProt P05106+P06756).
T2 construct: U87MG glioblastoma cells, which express high levels of αvβ3 integrin receptors; host or cells: U87MG human glioblastoma cells
Briefly: Competition binding assay on U87MG glioblastoma cells (FLAG-AgRP 7A competitor, flow cytometry). The following applies: competition with 5 nM FLAG-AgRP 7A, 5×10^4 U87MG cells in IBB, 4 hr at 4 °C, mean of three experiments ± SD. The source says: For simplicity, we chose to move forward with AgTx 7C ΔR21 for in vivo molecular imaging studies. To visualize tumor targeting and tissue biodistribution, we conjugated the near-infrared dye Alexa Fluor 680 (AF680) to the N-terminal amino group of AgTx 7C ΔR21 (Fig. S3A). We also synthesized AF680-labeled versions of AgRP 7C and EETI 2.5F for comparison studies. AF680-labeled EETI RDG, which contains a scrambled integrin recognition sequence, [30], served as a non-binding control. AF680-labeled knottin peptides were purified by RP-HPLC and had the expected masses for the addition of one dye molecule (Fig. S3B, C). Competition binding assays were used to determine if AF680 conjugation affected integrin recognition. FLAG-AgRP 7A was used to compete for knottin binding to U87MG human glioblastoma cells (Fig. 4).
Figure 4 Unlabeled and AF680-labeled knottins bind U87MG cells with high affinity. […]
Competition binding assays were performed on K562 leukemia cells transfected to express high levels of αvβ3 integrins. […] Cells were washed with BPBS and analyzed by flow cytometry on a FACSCalibur instrument (BD Biosciences), and data was quantified using FlowJo software (TreeStar). IC50 values were determined by nonlinear regression analysis using KaleidaGraph (Synergy Software). […]

Where two headings read alike, the source gives them in different places. Where a SMILES comes first, the peptide text is derived from it. Bridges are numbered along the chain shown (N, C = ends).

Regarding `CC(C)C[C@@H]1NC(=O)[C@@H]2CSSC[C@@H]3NC(=O)[C@H]([C@@H](C)O)NC(=O)[C@H](C)NC(=O)[C@H](C)NC(=O)[C@@H]4CCCN4C(=O)[C@H](CC(=O)O)NC(=O)[C@H](CSSC[C@H](NC(=O)CN)C(=O)N[C@@H](C(C)C)C(=O)N[C@@H](CCCNC(=N)N)C(=O)N[C@@H](CC(C)C)C(=O)N[C@@H](Cc4c[nH]cn4)C(=O)N[C@@H](CCC(=O)O)C(=O)N[C@@H](CO)C(=O)N2)NC(=O)[C@H](CSSC[C@@H](C(=O)N[C@@H](CCCNC(=N)N)C(=O)O)NC(=O)[C@H](Cc2ccc(O)cc2)NC(=O)[C@@H]2CSSC[C@H](NC(=O)[C@H](Cc4ccc(O)cc4)NC3=O)C(=O)N[C@@H](Cc3ccc(O)cc3)C(=O)NCC(=O)N[C@@H](CCCNC(=N)N)C(=O)NCC(=O)N[C@@H](CC(=O)O)C(=O)N[C@@H](CC(N)=O)C(=O)N[C@@H](CC(=O)O)C(=O)N[C@@H](CC(C)C)C(=O)N[C@@H](CCCNC(=N)N)C(=O)N2)NC(=O)[C@@H]2CCCN2C(=O)[C@H](C(C)C)NC(=O)[C@H](CCC(N)=O)NC(=O)[C@H](CCC(N)=O)NC(=O)CNC1=O` [AgRP 7C] (H-GCVRLHESCLGQQVPCCDPAATCYCYGRGDNDLRCYCR-OH; disulfide 2-17, 9-23, 16-37, 25-35), the “Metabolic breakdown in the liver, kidneys, and tumor” value in data set [1] (compared to EETI 2.5F) is recorded as “higher levels of metabolic breakdown”. Moreover, the “Stability in serum and blood” value in data set [1] is “remarkably stable in serum and blood”.
With `CC[C@H](C)[C@@H]1NC(=O)[C@@H](NC(=O)CN)CSSC[C@@H]2NC(=O)[C@@H]3CSSC[C@@H](C(=O)N[C@H](C(=O)O)[C@@H](C)O)NC(=O)[C@H](CCC(=O)O)NC(=O)[C@@H]4CSSC[C@H](NC(=O)[C@H]([C@@H](C)CC)NC(=O)[C@H](CSSC[C@H](NC(=O)[C@H](CCCNC(=N)N)NC(=O)CNC(=O)[C@H](Cc5ccc(O)cc5)NC(=O)[C@H](CC(=O)O)NC(=O)[C@H](CCC(=O)O)NC(=O)[C@H](C)NC1=O)C(=O)N[C@@H]([C@@H](C)O)C(=O)N[C@@H](Cc1c[nH]c5ccccc15)C(=O)NCC(=O)NCC(=O)N[C@@H]([C@@H](C)O)C(=O)N1CCC[C@H]1C(=O)N3)NC(=O)CNC(=O)[C@H](CCCNC(=N)N)NC(=O)CNC(=O)[C@H](CCCNC(=N)N)NC2=O)C(=O)N[C@@H](Cc1ccc(O)cc1)C(=O)NCC(=O)N[C@@H](CCCNC(=N)N)C(=O)NCC(=O)N[C@@H](CC(=O)O)C(=O)N[C@@H](CC(N)=O)C(=O)N[C@@H](CC(=O)O)C(=O)N[C@@H](CC(C)C)C(=O)N[C@@H](CCCNC(=N)N)C(=O)N4` [AgTx 7C P22G R24I] (H-GCIAEDYGRCTWGGTPCCRGRGCICYGRGDNDLRCECT-OH; disulfide 2-18, 10-23, 17-37, 25-35), the IC50 in data set [2] is 8.1 ± 1.6 nM.
In the case of `CC[C@H](C)[C@@H]1NC(=O)[C@@H](NC(=O)CN)CSSC[C@@H]2NC(=O)[C@@H]3CSSC[C@@H](C(=O)N[C@H](C(=O)O)[C@@H](C)O)NC(=O)[C@H](CCC(=O)O)NC(=O)[C@@H]4CSSC[C@H](NC(=O)[C@H]([C@@H](C)CC)NC(=O)[C@H](CSSC[C@H](NC(=O)[C@H](CCCNC(=N)N)NC(=O)CNC(=O)[C@H](Cc5ccc(O)cc5)NC(=O)[C@H](CC(=O)O)NC(=O)[C@H](CCC(=O)O)NC(=O)[C@H](C)NC1=O)C(=O)N[C@@H]([C@@H](C)O)C(=O)N[C@@H](Cc1c[nH]c5ccccc15)C(=O)NCC(=O)NCC(=O)N[C@@H]([C@@H](C)O)C(=O)N1CCC[C@H]1C(=O)N3)NC(=O)CNC(=O)CNC(=O)[C@H](CCCNC(=N)N)NC2=O)C(=O)N[C@@H](Cc1ccc(O)cc1)C(=O)NCC(=O)N[C@@H](CCCNC(=N)N)C(=O)NCC(=O)N[C@@H](CC(=O)O)C(=O)N[C@@H](CC(N)=O)C(=O)N[C@@H](CC(=O)O)C(=O)N[C@@H](CC(C)C)C(=O)N[C@@H](CCCNC(=N)N)C(=O)N4` [AgTx 7C ΔR21 P22G R24I] (H-GCIAEDYGRCTWGGTPCCRGGCICYGRGDNDLRCECT-OH; disulfide 2-18, 10-22, 17-36, 24-34), the IC50 in data set [2] is 5.1 ± 1.6 nM.
Consider `CC[C@H](C)[C@@H]1NC(=O)[C@@H](NC(=O)CN)CSSC[C@@H]2NC(=O)[C@@H]3CSSC[C@@H](C(=O)N[C@H](C(=O)O)[C@@H](C)O)NC(=O)[C@H](CCC(=O)O)NC(=O)[C@@H]4CSSC[C@H](NC(=O)[C@H](CCCNC(=N)N)NC(=O)[C@H](CSSC[C@H](NC(=O)[C@H](CCCNC(=N)N)NC(=O)CNC(=O)[C@H](Cc5ccc(O)cc5)NC(=O)[C@H](CC(=O)O)NC(=O)[C@H](CCC(=O)O)NC(=O)[C@H](C)NC1=O)C(=O)N[C@@H]([C@@H](C)O)C(=O)N[C@@H](Cc1c[nH]c5ccccc15)C(=O)NCC(=O)NCC(=O)N[C@@H]([C@@H](C)O)C(=O)N1CCC[C@H]1C(=O)N3)NC(=O)[C@@H]1CCCN1C(=O)CNC(=O)[C@H](CCCNC(=N)N)NC2=O)C(=O)N[C@@H](Cc1ccc(O)cc1)C(=O)NCC(=O)N[C@@H](CCCNC(=N)N)C(=O)NCC(=O)N[C@@H](CC(=O)O)C(=O)N[C@@H](CC(N)=O)C(=O)N[C@@H](CC(=O)O)C(=O)N[C@@H](CC(C)C)C(=O)N[C@@H](CCCNC(=N)N)C(=O)N4` [AgTx 7C ΔR21] (H-GCIAEDYGRCTWGGTPCCRGPCRCYGRGDNDLRCECT-OH; disulfide 2-18, 10-22, 17-36, 24-34), for which the IC50 was 10 ± 1 nM in data set [3] (unlabeled knottin, read-out: IC50, Unlabeled) and 2.3 ± 0.5 nM in data set [2].
On to `CC(C)C[C@@H]1NC(=O)[C@@H]2CSSC[C@@H](C(=O)NCC(=O)O)NC(=O)[C@H](Cc3ccccc3)NC(=O)CNC(=O)[C@H](CC(N)=O)NC(=O)[C@@H]3CCCN3C(=O)CNC(=O)[C@@H]3CSSC[C@H](NC(=O)[C@H]([C@@H](C)O)NC(=O)[C@H](CC(C)C)NC(=O)[C@@H]4CCCN4C(=O)[C@@H]4CCCN4C(=O)[C@H](CC(N)=O)NC(=O)[C@H](CC(=O)O)NC(=O)CNC(=O)[C@H](CCCNC(=N)N)NC(=O)[C@@H]4CCCN4C(=O)[C@H](CCCNC(=N)N)NC(=O)[C@@H]4CCCN4C(=O)[C@@H](NC(=O)CN)CSSC[C@H](NC(=O)CNC(=O)[C@H](C)NC1=O)C(=O)N[C@@H](C(C)C)C(=O)N3)C(=O)N[C@@H](CO)C(=O)N[C@@H](CCC(N)=O)C(=O)N[C@@H](CC(=O)O)C(=O)N[C@@H](CO)C(=O)N[C@@H](CC(=O)O)C(=O)N2` [EETI 2.5F] (H-GCPRPRGDNPPLTCSQDSDCLAGCVCGPNGFCG-OH; disulfide 2-24, 14-26, 20-32), for which, in data set [1], the “Stability in serum and blood” value is “remarkably stable in serum and blood”.
For “AF680-labeled EETI 2.5F: EETI 2.5F with one Alexa Fluor 680 dye at the N-terminus (CPRPRGDNPPLTCKQDSDCLAGCVCGPNGFCG; Alexa Fluor 680 on N-terminal amine; 3 disulfides)”, the IC50 in data set [3] (AF680-labeled knottin, read-out: IC50, AF680 labeled) amounted to 4 ± 0.2 nM.
